Measurements as given in US12145947B2, “Pyrimidine based modulators and uses thereof” (Quanta Therapeutics, Inc., priority 2022, dated 2024).
pIC50: −log10 of the molar value. Like-named read-outs stand apart in the source and are kept apart here.

How the values were obtained:
[1] = biological target: T1, GST-tagged KRAS-G12D (2-169) (Homo sapiens, UniProt P01116, G12D); assay: Nucleotide exchange assay (NEA), SOS-mediated, HTRF, KRAS G12D; format: biochemical; settings: Table 4, IC50 extracted at 30 min
T1 construct: GST-tagged KRAS-G12D (2-169, Reaction Biology, MSC-11-539); purchased Reaction Biology MSC-11-539 (KRAS G12D); MSC-11-502 (SOS1cat)
How it was run: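 GST-KRAS-G12D (2-169, 5 nM final) with Tb-anti-GST donor was preincubated with compound 1 h at RT (pH 7.3 HEPES buffer, MgCl2, DTT), then SOScat (564-1049, 20 nM) and GTP-DY-647P1 (150 nM) were added. HTRF was read at RT; % inhibition vs DMSO/no-SOS blank, 4-parameter IC50 taken at 30 min.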

[2] = system: AGS cells (KRAS G12D), phospho-ERK; assay: pERK In Cell Western (ICW) assay (Method B), AGS cells; format: cell-based; settings: Table 4, pERK, 3 hours, read-out: ICW-AGS
Description: pERK ICW is a high throughput screening assay to evaluate the cellular potency of mutant KRAS small molecule inhibitors. KRAS mutant cell lines AGS and GP2D (KRAS^G12D) were purchased from ATCC and maintained respectively in RPMI and DMEM medium supplemented with 10% fetal bovine serum and Penicillin/Streptomycin.
Cells grown in exponential phase were trypsinized, resuspended in fresh media, and viable cells were counted using a cell counter with Trypan Blue (BioRad TC20). Cells were seeded into 384-well plate (Greiner 781091) at density of 5,000 cells/well for AGS and 10,000 cells/well for GP2D and allowed to grow overnight in a 37° C. CO2 incubator. The next day, compounds were dispensed into wells with a ½ log, 10-point serial dilution and top concentration of […] using Tecan D300e dispenser and incubated for 3 hours in a 37° C. CO2 incubator. Cells were then fixed with paraformaldehyde (Electron Microscopy Sciences, 15710, 4% final concentration) for 30 min, permeabilized with wash buffer (1×PBS+0.1% Triton X-100) for 30 min and blocked with Odyssey blocking buffer (Li—COR 927-70001) for 1 hour, all at room temperature (RT). Phospho-ERK antibody (CST 4370L) was diluted 1:500 in Odyssey blocking+0.2% Tween 20 and incubated with cells overnight at 4° C. The next day, plates were washed 5× with wash buffer, incubated with IRDye 800 CW, Goat anti-Rabbit secondary antibody (Li—COR 926-32211, 1:500) and DRAQ5 (CST 4084L, 1:5,000) diluted in Odyssey blocking+0.2% Tween 20 for 1 hour, washed 5×, and imaged on an Odyssey CLx imaging system.
For data analysis, signal intensities from 800 (phosphor-ERK) and 700 (DRAQ5) channels were extracted, and phospho-ERK signals were normalized to DRAQ5 signals for each well and percent of DMSO control values were computed. Data were then imported into Graphpad Prism to compute half-maximal inhibitory concentrations (IC50) using a 4-parameter variable slope model. Z-factor for each plate was computed from signals derived from wells treated with either DMSO or […] of Trametinib. AGS pERK ICW (Method B) IC50 (uM) values of selected compounds are depicted in Table 2 with compounds having a value 0.001 uM to 0.01 uM as ++++; >0.01 uM to 0.1 uM as +++; >0.1 uM to 1 uM as ++; 1 uM to 10 uM as + and >10 uM as NA.

T1 sequence (P01116 2-169 isoform P01116-2 G12D): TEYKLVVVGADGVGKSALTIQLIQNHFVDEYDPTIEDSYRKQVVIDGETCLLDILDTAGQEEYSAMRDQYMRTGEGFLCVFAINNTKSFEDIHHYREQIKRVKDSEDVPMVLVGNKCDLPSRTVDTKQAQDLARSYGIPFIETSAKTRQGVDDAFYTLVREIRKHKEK

| SMILES | pIC50 [1] | pIC50 ([2]; Homo sapiens) | pIC50 ([1]; listed as 74.1) | pIC50 [2] |
| --- | --- | --- | --- | --- |
| N#Cc1c(N2C[C@H]3CC[C@@H](C2)N3)nc(OCC2(CN3CCOCC3)CC2)nc1N1CC2(CCCc3sc(N)c(C#N)c32)C1 [Compound 41, 2-amino-1′-[5-cyano-2-[[1-(morpholinomethyl)cyclopropyl]methoxy]-6-[(1R,5S)-3,8-diazabicyclo[3.2.1]octan-3-yl]pyrimidin-4-yl]spiro[6,7-dihydro-5H-benzothiophene-4,3′-azetidine]-3-carbonitrile] | > 8.00 | 7.00 to 8.00 |  |  |
| N#Cc1c(N2C[C@H]3COC[C@@H](C2)N3)nc(OCC2(CN3CCOCC3)CC2)nc1N1CC2(CCc3sc(N)c(C#N)c32)C1 [Compound 42, 2-amino-1′-[5-cyano-2-[[1-(morpholinomethyl)cyclopropyl]methoxy]-6-(3-oxa-7,9-diazabicyclo[3.3.1]nonan-7-yl)pyrimidin-4-yl]spiro[5,6-dihydrocyclopenta[b]thiophene-4,3′-azetidine]-3-carbonitrile] | > 8.00 | 6.00 to 7.00 |  |  |
| CC1CC2(CN(c3nc(OCC4(CN5CCOCC5)CC4)nc(N4C[C@H]5CC[C@@H](C4)N5)c3C#N)C2)c2c1sc(N)c2C#N (stereo partly drawn) [Compound 45, 2-amino-1-[5-cyano-2-[[1-(morpholinomethyl)cyclopropyl]methoxy]-6-[(1R,5S)-3,8-diazabicyclo[3.2.1]octan-3-yl]pyrimidin-4-yl]-6-methyl-spiro[5,6-dihydrocyclopenta[b]thiophene-4,3′-azetidine]-3-carbonitrile] | > 8.00 | 7.00 to 8.00 |  |  |
| Cc1nc(-c2nn3c(c2Cl)CN(c2nc(OC[C@@]45CCCN4C[C@H](F)C5)nc(N4CC5(CCc6sc(N)c(C#N)c65)C4)c2C#N)CCC3)no1 [Compound 46, 2-amino-1′-[6-[3-chloro-2-(5-methyl-1,2,4-oxadiazol-3-yl)-4,6,7,8-tetrahydropyrazolo[1,5-a][1,4]diazepin-5-yl]-5-cyano-2-[[(2R,8S)-2-fluoro-1,2,3,5,6,7-hexahydropyrrolizin-8-yl]methoxy]pyrimidin-4-yl]spiro[5,6-dihydrocyclopenta[b]thiophene-4,3′-azetidine]-3-carbonitrile] | > 8.00 | 6.00 to 7.00 |  |  |
| CN(C)C1(COc2nc(N3C[C@H]4CC[C@@H](C3)N4)c(C#N)c(N3CC4(CCc5sc(N)c(C#N)c54)C3)n2)CC1 [Compound 47, 2-amino-1′-[5-cyano-6-[(1R,5S)-3,8-diazabicyclo[3.2.1]octan-3-yl]-2-[[1-(dimethylamino)cyclopropyl]methoxy]pyrimidin-4-yl]spiro[5,6-dihydrocyclopenta[b]thiophene-4,3′-azetidine]-3-carbonitrile] | > 8.00 | 6.00 to 7.00 |  |  |
| CN(CCOc1nc(N2C[C@H]3CC[C@@H](C2)N3)c(C#N)c(N2CC3(CCc4sc(N)c(C#N)c43)C2)n1)C1CCC1 [Compound 48, 2-amino-1′-[5-cyano-2-[2-[cyclobutyl(methyl)amino]ethoxy]-6-[(1R,5S)-3,8-diazabicyclo[3.2.1]octan-3-yl]pyrimidin-4-yl]spiro[5,6-dihydrocyclopenta[b]thiophene-4,3′-azetidine]-3-carbonitrile] | 7.00 to 8.00 | 5.00 to 6.00 |  |  |
| CN(C)CC1(COc2nc(N3C[C@H]4CC[C@@H](C3)N4)c(C#N)c(N3CC4(CCc5sc(N)c(C#N)c54)C3)n2)COC1 [Compound 52, 2-amino-1′-[5-cyano-6-[(1R,5S)-3,8-diazabicyclo[3.2.1]octan-3-yl]-2-[[3-[(dimethylamino)methyl]oxetan-3-yl]methoxy]pyrimidin-4-yl]spiro[5,6-dihydrocyclopenta[b]thiophene-4,3′-azetidine]-3-carbonitrile] | > 8.00 | 6.00 to 7.00 |  |  |
| N#Cc1c(N2CCCn3nc(C(=O)C4CC4)c(Cl)c3C2)nc(OC[C@@]23CCCN2C[C@H](F)C3)nc1N1CC2(CCc3sc(N)c(C#N)c32)C1 [Compound 62, 2-amino-1′-[6-[3-chloro-2-(cyclopropanecarbonyl)-4,6,7,8-tetrahydropyrazolo[1,5-a][1,4]diazepin-5-yl]-5-cyano-2-[[(2R,8S)-2-fluoro-1,2,3,5,6,7-hexahydropyrrolizin-8-yl]methoxy]pyrimidin-4-yl]spiro[5,6-dihydrocyclopenta[b]thiophene-4,3′-azetidine]-3-carbonitrile] | > 8.00 | 7.00 to 8.00 |  |  |
| N#Cc1c(N2C[C@H]3CC[C@@H](C2)N3)nc(OCC2(CN3CCOCC3)CC2)nc1N1CC2(CCCCc3sc(N)c(C#N)c32)C1 [Compound 70, 2-amino-1′-[5-cyano-2-[[1-(morpholinomethyl)cyclopropyl]methoxy]-6-[(1R,5S)-3,8-diazabicyclo[3.2.1]octan-3-yl]pyrimidin-4-yl]spiro[5,6,7,8-tetrahydrocyclohepta[b]thiophene-4,3′-azetidine]-3-carbonitrile] | > 8.00 | 7.00 to 8.00 |  |  |
| CN(C)CC1(COc2nc(N3CC4CCC(C3)N4)c(C#N)c(N3CC4(CCc5sc(N)c(C#N)c54)C3)n2)CC1(F)F (stereo not shown) [Compound 74A, 2-amino-1′-[5-cyano-6-(3,8-diazabicyclo[3.2.1]octan-3-yl)-2-[[(1*)-1-[(dimethylamino)methyl]-2,2-difluoro-cyclopropyl]methoxy]pyrimidin-4-yl]spiro[5,6-dihydrocyclopenta[b]thiophene-4,3′-azetidine]-3-carbonitrile] |  |  | > 8.00 | 8.00 to 9.00 |
| N#Cc1c(N2C[C@H]3CC[C@@H](C2)N3)nc(OCc2ccn[nH]2)nc1N1CC2(CCc3sc(N)c(C#N)c32)C1 [Compound 79, 2-amino-1′-[5-cyano-6-[(1R,5S)-3,8-diazabicyclo[3.2.1]octan-3-yl]-2-(1H-pyrazol-5-ylmethoxy)pyrimidin-4-yl]spiro[5,6-dihydrocyclopenta[b]thiophene-4,3′-azetidine]-3-carbonitrile] | > 8.00 | 7.00 to 8.00 |  |  |
| CN1CCN(CC2(COc3nc(N4C[C@H]5CC[C@@H](C4)N5)c(C#N)c(N4CC5(CCc6sc(N)c(C#N)c65)C4)n3)CC2)CC1=O [Compound 80, 2-amino-1′-[5-cyano-2-[[1-[(4-methyl-3-oxo-piperazin-1-yl)methyl]cyclopropyl]methoxy]-6-[(1R,5S)-3,8-diazabicyclo[3.2.1]octan-3-yl]pyrimidin-4-yl]spiro[5,6-dihydrocyclopenta[b]thiophene-4,3′-azetidine]-3-carbonitrile] | > 8.00 | 7.00 to 8.00 |  |  |
| CO[C@H]1CN(CC2(COc3nc(N4C[C@H]5CC[C@@H](C4)N5)c(C#N)c(N4CC5(CCc6sc(N)c(C#N)c65)C4)n3)CC2)C[C@@H]1F [Compound 81, 2-amino-1′-[5-cyano-6-[(1R,5S)-3,8-diazabicyclo[3.2.1]octan-3-yl]-2-[[1-[[(3S,4S)-3-fluoro-4-methoxy-pyrrolidin-1-yl]methyl]cyclopropyl]methoxy]pyrimidin-4-yl]spiro[5,6-dihydrocyclopenta[b]thiophene-4,3′-azetidine]-3-carbonitrile] | > 8.00 | 6.00 to 7.00 |  |  |
| Cc1nc(-c2nn3c(c2Cl)CN(c2nc(OC[C@@]45CCCN4C[C@H](F)C5)nc(N4CC5(CCc6sc(N)c(C#N)c65)C4)c2C#N)CCC3)n(C)n1 [Compound 85, 2-amino-1′-[6-[3-chloro-2-(2,5-dimethyl-1,2,4-triazol-3-yl)-4,6,7,8-tetrahydropyrazolo[1,5-a][1,4]diazepin-5-yl]-5-cyano-2-[[(2R,8S)-2-fluoro-1,2,3,5,6,7-hexahydropyrrolizin-8-yl]methoxy]pyrimidin-4-yl]spiro[5,6-dihydrocyclopenta[b]thiophene-4,3′-azetidine]-3-carbonitrile] | > 8.00 | 6.00 to 7.00 |  |  |
